Reference: patent publication US11433136B2, “Polyacetal polymers, conjugates, particles and uses thereof” (THE GENERAL HOSPITAL CORPORATION, priority 2015, dated 2022)

How the values were obtained:
AK4.4 tumors = assay: Orthotopic AK4.4 pancreatic (PDAC) tumors in lean and obese mice; format: in vivo, mice (FVB)
Method: Diet started at six weeks of age, continued for ten weeks (C57BL/6 and FVB), at which time tumors were implanted, and then continued until the end of experiments. In the spontaneous tumor models, diets were administered until tumor collection. Mice genetically deficient for leptin (ob/ob) on a standard chow for seven weeks gained weight compared to age matched WT mice (n=8-10/group for C57Bl/6, FVB and ob/ob, 4-10/group for KPC, 7-21/group for iKRAS). Left bars represent mice fed a low-fat diet, right bars represent mice fed a high fat diet for all groups except C57/B6 on the far right of the graph, in which the right bar represents the ob/ob mice. […] PAN02 and AK4.4 syngeneic tumors were orthotopically implanted in C57BL/6 and FVB mice respectively at ten weeks of diet (lean diet, left bars; and obese diet or ob/ob mice, right bars); ob/ob mice were implanted with PAN02 tumors at seven weeks of age. Tumors were collected 21 days later. Obese animals presented with higher tumor weights than lean counterparts in all models (n=8-10/group). FIG. 7D is representative images of mesenteric peritoneal dissemination in lean and obese mice implanted with PAN02 tumors. Mesenteries collected at the same time as tumors in FIG. 7C. FIG. 7E is a graph showing the quantification of mesenteric peritoneal metastasis in the PAN02 model. FIG. 7F is a graph showing the quantification of retro-peritoneal metastasis in the AK4.4 model. Data are shown as mean±standard error of the mean (SEM). P values were determined by the Student t-test. *, P<0.05; **, P<0.01; ***, P<0.001.
Expression of genes associated with AT-1 pathway activation and fibrosis/desmoplasia is increased in PAN02 (FIG. 10A) and AK4.4 (FIG. 10B) tumors from obese mice (right bars) in comparison to lean mice (left bars). […] Data normalized to lean group. 3-4 samples per group pooled in one single PCR array fibrosis gene set plate. […] Of note, similar to αSMA, the changes of AT1, as well as other desmoplasia related markers, were relatively mild in the lean setting. […] Data are shown as mean±SEM with the exception of FIGS. 10A and 10B. P values were determined by the Student t-test unless otherwise stated. *, P<0.05; **, P<0.01, ***p<0.001.
Quantification of total and lectin-positive vessel area in AK4.4 tumors. Obese mice (right bars) presented with decreased perfusion (n=5-12 tumors/group) compared to lean mice (left bars). […] Obese mice presented with increased expression of the hypoxia marker Hif-1α in tumors. […] Doxorubicin quantified via immunofluorescence (n=4 tumors/group). […] AK4.4 syngeneic tumors were orthotopically implanted at ten weeks of diet; treatments were initiated at day 7 post-implantation and tumors resected at day 19. […] Data in FIGS. 17A, 17C and 17D, are shown as mean±SEM. P values were determined by the Student t-test unless otherwise stated. *, P<0.05.
FIGS. 18A, 18B, 18C, 18D, 18E, 18F, and 18G show the additional effects of AT-1 inhibition on obesity-aggravated desmoplasia, perfusion and drug delivery. […] Scale bar: 30 μm (left panels), 500 μm (right panel). […] FIG. 18E is a western blot showing a decrease in αSMA expression in PAN02 tumors implanted in obese AT1 KO mice compared with obese WT mice (bands are part of a larger WB. Lean control group is depicted in FIG. 18F). […] Data in FIGS. 18D, 18F and 18G are shown as mean±SEM. In FIGS. 18C and 18F, far left bars represent lean mice, middle left bars represent lean mice treated with losartan, middle right bars represent obese mice, and […] bars represent obese mice treated with losartan.

PDACs = assay: Effect of losartan on immune cell populations in tumors (model not stated); parameters: species or system mice; conditions: mouse, in vivo
Method: FIGS. 21A, 21B, and 21C show the effect of losartan on the immune tumor microenvironment. […] Error bars represent standard error of the mean. P values were determined by the Student t-test in A. *, P<0.05, **, P<0.01, ***, P<0.001.

PDAC = conditions: in vivo; cited from earlier work
[1] = system: cardiac and renal fibrosis; conditions: in vivo; cited from earlier work
[2] = system: mouse models of Marfan syndrome; conditions: affected mice; cited from earlier work
Marfan syndrome = conditions: children; cited from earlier work

Row | chemotherapy delivery to tumors (AK4.4 tumors; obese but not lean mice) | Compound | response to chemotherapy (tumor growth) (AK4.4 tumors; obese vs lean, treatment from day 7, tumors resected day 19) | tumor αSMA protein expression (AK4.4 tumors; lean and obese) | mRNA expression of markers of tumor fibrosis/desmoplasia (AK4.4 tumors; lean mice) | response to chemotherapy with AT1 blockade (AK4.4 tumors; losartan with 5-FU, lean and obese) | tumor perfusion (AK4.4 tumors; obese but not lean mice) | cytokine expression in tumors (multiplex protein) (AK4.4 tumors; obese mice) | mRNA expression of markers of tumor fibrosis/desmoplasia (AK4.4 tumors; obese mice) | tumor fibrillar collagen (SHG) and collagen-1 expression (AK4.4 tumors; obese mice) | expression of AT1 signaling and desmoplasia-related markers (western blotting) (AK4.4 tumors; obese vs lean) | enrichment for GR(+)F480(−) cells within the CD45 population (PDACs) | enrichment for T regulatory cells within CD4 cells (PDACs) | desmoplasia in PDAC (PDAC) | vascular perfusion, drug delivery and chemotherapy effectiveness (PDAC) | incidence of cardiac and renal fibrosis [1] | blood vessel architecture and aortic aneurysms [2] | progression of aortic and muscular lesions (Marfan syndrome)
1 | – | O=c1[nH]cc(F)c(=O)[nH]1 [Example 5-FU, 5-fluorouracil] | less effective in preventing tumor growth in obese animals | – | – | – | – | – | – | – | – | – | – | – | – | – | – | –
2 | increase chemotherapy delivery | CCCCc1nc(Cl)c(CO)n1Cc1ccc(-c2ccccc2-c2nn[nH]n2)cc1 [losartan] | – | reduced tumor αSMA protein expression more dramatically in the obese setting | did not alter these markers in lean mice | improved response to chemotherapy in both lean and obese settings but with higher magnitude in obese setting | tended to improve perfusion | reduced the expression of multiple cytokines including IL-1 | reverted by losartan | reduced tumor fibrillar collagen (top panels) as well as collagen-1 expression | normalized the obesity-augmented expression | tended to decrease the enrichment for GR(+)F480(−) cells | tended to decrease the enrichment | can reduce desmoplasia in PDAC | can enhance vascular perfusion by decompressing vessels, leading to improved drug delivery and chemotherapy effectiveness | reduce the incidence of cardiac and renal fibrosis | striking effects in improving blood vessel architecture and prevented the development of aortic aneurysms | can strikingly prevent progression of aortic and muscular lesions
